# PubChem BioAssay (NCI)
# “And” between values parts separate entries of the source, which are not always exact repeats. Equal entries are not always repeated.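 In this assay, cells in 96-well plates receive the compound at five concentrations for 48 hours. Endpoints are linearly interpolated between the surrounding concentrations. GI50 is the concentration that inhibits growth by half. TGI: total growth inhibition.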
# Tests used:
# Assay in all cases: NCI tumour cell line growth inhibition, 48 h
# RXF 393 renal = test system: RXF 393 renal
# OVCAR-4 ovarian = test system: OVCAR-4 ovarian
# NCI-H23 lung = test system: NCI-H23 lung
# M14 melanoma = test system: M14 melanoma
# HCC-2998 colon = test system: HCC-2998 colon
# SN12C renal = test system: SN12C renal
Structure (SMILES),GI50 (RXF 393 renal),TGI (RXF 393 renal),GI50 (OVCAR-4 ovarian),TGI (OVCAR-4 ovarian),GI50 (NCI-H23 lung),TGI (NCI-H23 lung),GI50 (M14 melanoma),TGI (M14 melanoma),GI50 (HCC-2998 colon),TGI (HCC-2998 colon),GI50 (SN12C renal),TGI (SN12C renal)
CCN(CC)CCCC(C)N=C(C1=C(C(=NC(C)CCCN(CC)CC)c2cccc(OC)c2)C(=O)NC1=O)c1cccc(OC)c1 (centres undefined),1.11 µM,4.15 µM,1.18 µM,3.49 µM,2.52 µM,9.11 µM,0.89 µM,1.68 µM,1.05 µM,2.2 µM,2.38 µM,14.3 µM
C=C1CCC2C(C)(COC(=O)CC)C(OC(=O)CC)CCC2(C)C1C/C=C1/C(=O)OCC1OC(=O)CC (centres undefined),1.66 µM,3.05 µM,2.33 µM,6.9 µM,3.39 µM,13.2 µM,1.94 µM,4.66 µM,4.25 µM,13.9 µM,2.63 µM,10.1 µM
COC(=O)c1cc(O)c2c(c1C(=O)OC)C[C@H]1[C@@H]3CC=C4C[C@@H](O)CC[C@]4(C)[C@H]3CC[C@]21C,1.19 µM,3.39 µM,3.59 µM,15.8 µM,3.5 µM,23.5 µM,3.47 µM,18.7 µM,3.74 µM,16 µM,3.57 µM,26.8 µM
Cc1sc2c(c1C)C(c1ccc(Cl)cc1)=N[C@@H](CC(=O)OC(C)(C)C)c1nnc(C)n1-2,1.95 µM and 0.737 µM,19 µM and 9.28 µM,0.123 µM and 0.15 µM,17.2 µM and 16.1 µM,0.45 µM and 0.28 µM,18.7 µM and 18.6 µM,0.436 µM and 0.772 µM,19.6 µM and 21.7 µM,0.379 µM and 0.291 µM,13.8 µM and 14 µM,8.65 µM and 1.95 µM,25.9 µM and 22 µM
CCOC(=O)CC1C(COC(=O)NC)OC(n2cnc3c(NC(=O)Nc4ccccc4)ncnc32)C1O[Si](C)(C)C(C)(C)C (centres undefined),2.94 µM,12.4 µM,10.7 µM,> 100 µM,12.9 µM,53 µM,6.37 µM,95.7 µM,8.76 µM,28.8 µM,2.17 µM,5.19 µM
COc1nc(N)nc2c1ncn2C1OC(CO)C(O)C1O (centres undefined),2.32 µM,–,> 5000 µM,> 5000 µM,909 µM,> 5000 µM,> 5000 µM,> 5000 µM,> 5000 µM,> 5000 µM,3280 µM,> 5000 µM
COc1ccc(-c2c3c(n(C4OC(COC(C)=O)C(OC(C)=O)C(OC(C)=O)C4OC(C)=O)c(=S)c2C#N)CC(C)(C)CC3=O)cc1 (centres undefined),20.2 µM and > 100 µM,71.8 µM and > 100 µM,45.4 µM and > 100 µM,> 100 µM,39.9 µM and > 100 µM,> 100 µM,49.7 µM and > 100 µM,> 100 µM,–,> 100 µM,–,> 100 µM
Cc1cc(CC(C)CC(C)(C)C)n(O)c(=O)c1 (centres undefined) (tested in a mixture with another compound),0.372 µM,6.53 µM,0.358 µM,> 84.4 µM,0.559 µM,22 µM,0.285 µM,1.16 µM,2.6 µM,17.7 µM,0.468 µM,32.7 µM
COc1cccc(C2c3cc4c(cc3OC(N3CCCC3)C2C)OCO4)c1O (centres undefined),–,17.4 µM,–,> 94.2 µM,–,34.9 µM,–,12.6 µM,–,46.9 µM,–,40.7 µM
O=C(O)C(Cl)(c1ccccc1)c1ccccc1,–,> 100 µM,–,> 100 µM,–,> 100 µM,–,> 100 µM,–,> 100 µM,–,> 100 µM
O=C(OCc1ncc(-c2ccc(C(F)(F)F)cc2)c(NC2CCCCCC2)n1)c1c(F)c(F)c(F)c(F)c1F,5.34 µM,21.3 µM,15.5 µM,30.6 µM,10.6 µM,28 µM,17.3 µM,39.6 µM,16.7 µM,32.7 µM,12.1 µM,28 µM
Cc1cc(N2CCSCC2)nc(NC2CCCC(Nc3ccnc4cc(Cl)ccc34)C2)n1 (centres undefined),1.41 µM,2.93 µM,1.61 µM,5.13 µM,2.55 µM,7.99 µM,1.85 µM,3.72 µM,1.81 µM,3.63 µM,1.9 µM,4.37 µM
CC(C)(C)CC(C)(C)NCc1cc(C(C)(C)C)cc(CNC(C)(C)CC(C)(C)C)c1O,1.92 µM,5.85 µM,2.62 µM,10.9 µM,2.42 µM,7.8 µM,1.95 µM,4.16 µM,2.58 µM,8.07 µM,2.74 µM,11.9 µM
Cc1cc(C)c(NC(=S)NC(=O)c2ccccc2)cc1C,–,> 100 µM,–,> 100 µM,–,> 100 µM,–,> 100 µM,–,> 100 µM,–,> 100 µM
OCC(O)c1nc2ccc3[nH]ncc3c2c2c1CCCC2 (centres undefined),0.612 µM,1.45 µM,2.49 µM,> 50 µM,1.07 µM,2.46 µM,1.17 µM,2.78 µM,1.07 µM,2.89 µM,1.56 µM,> 50 µM
